Laboratory results from PMC8568899, “Molecular mechanisms of the CdnG-Cap5 antiphage defense system employing 3′,2′-cGAMP as the second messenger” (Nature Communications, 2021).
Changes are numbered by the printed parent chain.

How the values were obtained:
Experiment in all cases: DNA degradation, agarose gel
Type in all cases: biochemical
[1] = biological target: T1, AsCap5 (Asticcacaulis sp., UniProt Z9IC27YPF2, R310K); settings: activator; 10 nM cGAMP; linearized plasmid 25 nM; 1 mM MgCl2, 0.5 mM MnCl2, pH 7.4, 37 °C, 15 min
T1 construct: full length; E. coli BL21(DE3), N-terminal 6xHis-SUMO tag cut with Ulp1; codon-optimized gene; homodimer (N-terminal HNH, C-terminal SAVED)
T1 sequence (Z9IC27YPF2 1-384 R310K): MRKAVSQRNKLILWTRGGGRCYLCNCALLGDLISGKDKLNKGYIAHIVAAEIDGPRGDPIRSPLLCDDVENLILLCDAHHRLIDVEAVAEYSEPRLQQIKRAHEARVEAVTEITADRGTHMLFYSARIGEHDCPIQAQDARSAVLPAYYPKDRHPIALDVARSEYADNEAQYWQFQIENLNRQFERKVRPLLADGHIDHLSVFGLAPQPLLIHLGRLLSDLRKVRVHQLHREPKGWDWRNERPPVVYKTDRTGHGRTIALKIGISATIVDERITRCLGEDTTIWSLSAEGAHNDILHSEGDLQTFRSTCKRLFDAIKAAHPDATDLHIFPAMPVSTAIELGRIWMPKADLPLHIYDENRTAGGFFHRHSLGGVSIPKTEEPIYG

[2] = biological target: T2, AsCap5 (Asticcacaulis sp., UniProt Z9IC27YPF2, K347R); settings: activator; 10 nM cGAMP; linearized plasmid 25 nM; 1 mM MgCl2, 0.5 mM MnCl2, pH 7.4, 37 °C, 15 min
T2 construct: full length; E. coli BL21(DE3), N-terminal 6xHis-SUMO tag cut with Ulp1; codon-optimized gene; homodimer (N-terminal HNH, C-terminal SAVED)
T2 sequence (Z9IC27YPF2 1-384 K347R): T1 sequence (Z9IC27YPF2 1-384 R310K) with K310R, K347R

[3] = biological target: T3, LlCap5 (Lactococcus cremoris, UniProt A0A1E7G0A2); settings: activator; 50 nM Cap5, linearized plasmid 25 nM; 1 mM MgCl2, 0.5 mM MnCl2, pH 7.4, 37 °C, 15 min; 10-fold dilution steps
T3 construct: gene AJ89_14580; full length; E. coli BL21(DE3), N-terminal 6xHis-SUMO tag cut with Ulp1; codon-optimized gene; homodimer (N-terminal HNH, C-terminal SAVED)

[4] = biological target: T4, AsCap5 (Asticcacaulis sp., UniProt Z9IC27YPF2); settings: activator; 50 nM Cap5, linearized plasmid 25 nM; 1 mM MgCl2, 0.5 mM MnCl2, pH 7.4, 37 °C, 15 min; 10-fold dilution steps
T4 construct: full length; E. coli BL21(DE3), N-terminal 6xHis-SUMO tag cut with Ulp1; codon-optimized gene; homodimer (N-terminal HNH, C-terminal SAVED)
T4 sequence (Z9IC27YPF2 1-384): T1 sequence (Z9IC27YPF2 1-384 R310K) with K310R

[5] = biological target: T5, AsCap5 (Asticcacaulis sp., UniProt Z9IC27YPF2, R310Q); settings: activator; 10 nM cGAMP; linearized plasmid 25 nM; 1 mM MgCl2, 0.5 mM MnCl2, pH 7.4, 37 °C, 15 min
T5 construct: full length; E. coli BL21(DE3), N-terminal 6xHis-SUMO tag cut with Ulp1; codon-optimized gene; homodimer (N-terminal HNH, C-terminal SAVED)
T5 sequence (Z9IC27YPF2 1-384 R310Q): T1 sequence (Z9IC27YPF2 1-384 R310K) with K310Q

[6] = biological target: T6, AsCap5 (Asticcacaulis sp., UniProt Z9IC27YPF2, D220A); settings: activator; 10 nM cGAMP; linearized plasmid 25 nM; 1 mM MgCl2, 0.5 mM MnCl2, pH 7.4, 37 °C, 15 min
T6 construct: full length; E. coli BL21(DE3), N-terminal 6xHis-SUMO tag cut with Ulp1; codon-optimized gene; homodimer (N-terminal HNH, C-terminal SAVED)
T6 sequence (Z9IC27YPF2 1-384 D220A): T1 sequence (Z9IC27YPF2 1-384 R310K) with D220A, K310R

[7] = biological target: T7, AsCap5 (Asticcacaulis sp., UniProt Z9IC27YPF2, D349A); settings: activator; 10 nM cGAMP; linearized plasmid 25 nM; 1 mM MgCl2, 0.5 mM MnCl2, pH 7.4, 37 °C, 15 min
T7 construct: full length; E. coli BL21(DE3), N-terminal 6xHis-SUMO tag cut with Ulp1; codon-optimized gene; homodimer (N-terminal HNH, C-terminal SAVED)
T7 sequence (Z9IC27YPF2 1-384 D349A): T1 sequence (Z9IC27YPF2 1-384 R310K) with K310R, D349A

[8] = biological target: T8, AsCap5 (Asticcacaulis sp., UniProt Z9IC27YPF2, K347Q); settings: activator; 10 nM cGAMP; linearized plasmid 25 nM; 1 mM MgCl2, 0.5 mM MnCl2, pH 7.4, 37 °C, 15 min
T8 construct: full length; E. coli BL21(DE3), N-terminal 6xHis-SUMO tag cut with Ulp1; codon-optimized gene; homodimer (N-terminal HNH, C-terminal SAVED)
T8 sequence (Z9IC27YPF2 1-384 K347Q): T1 sequence (Z9IC27YPF2 1-384 R310K) with K310R, K347Q

[9] = biological target: T9, AsCap5 (Asticcacaulis sp., UniProt Z9IC27YPF2, K347A); settings: activator; 10 nM cGAMP; linearized plasmid 25 nM; 1 mM MgCl2, 0.5 mM MnCl2, pH 7.4, 37 °C, 15 min
T9 construct: full length; E. coli BL21(DE3), N-terminal 6xHis-SUMO tag cut with Ulp1; codon-optimized gene; homodimer (N-terminal HNH, C-terminal SAVED)
T9 sequence (Z9IC27YPF2 1-384 K347A): T1 sequence (Z9IC27YPF2 1-384 R310K) with K310R, K347A

[10] = biological target: T4, AsCap5; settings: activator; 50 nM Cap5, linearized plasmid 25 nM; 1 mM MgCl2, 0.5 mM MnCl2, pH 7.4, 37 °C, 15 min; 10-fold dilution steps; remark: listed apart in the source
[11] = biological target: T3, LlCap5; settings: activator; 50 nM Cap5, linearized plasmid 25 nM; 1 mM MgCl2, 0.5 mM MnCl2, pH 7.4, 37 °C, 15 min; 10-fold dilution steps; remark: listed apart in the source

T3 sequence (A0A1E7G0A2 entry or part of it): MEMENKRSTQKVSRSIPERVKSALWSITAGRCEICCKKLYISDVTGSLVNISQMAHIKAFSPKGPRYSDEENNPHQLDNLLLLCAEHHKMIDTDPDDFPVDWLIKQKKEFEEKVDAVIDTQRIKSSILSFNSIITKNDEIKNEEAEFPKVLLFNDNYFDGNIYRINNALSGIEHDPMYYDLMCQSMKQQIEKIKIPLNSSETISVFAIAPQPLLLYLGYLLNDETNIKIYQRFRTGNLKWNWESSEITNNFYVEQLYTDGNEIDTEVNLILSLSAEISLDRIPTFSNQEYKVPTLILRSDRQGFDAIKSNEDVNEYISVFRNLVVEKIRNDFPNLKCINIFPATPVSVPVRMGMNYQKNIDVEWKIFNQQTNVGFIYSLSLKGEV

Structure (SMILES) | estimated activity [1] | fold less active than wild type [2] | concentration giving significant DNA degradation [3] | concentration giving significant DNA degradation [4] | estimated activity [5] | estimated activity (% of wild type) [6] | estimated activity [7] | estimated activity [8] | % reduction of activity [9] | concentration giving same degradation as 10 nM 3′,2′-cGAMP [10] | concentration giving same degradation as 10 nM 3′,2′-cGAMP [11]
Nc1nc2c(ncn2[C@@H]2O[C@@H]3COP(=O)(O)O[C@@H]4[C@H](O)[C@@H](COP(=O)(O)O[C@H]3[C@H]2O)O[C@H]4n2cnc3c(N)ncnc32)c(=O)[nH]1 [3′,2′-cGAMP] | R310K and R310Q mutants, and both also showed significantly reduced activities | ~ 10 fold | ~ 10 nM | ~ 10 nM | R310K and R310Q mutants, and both also showed significantly reduced activities | ~ 15% | D349A mutation showed a similar degree of reduced activity as D220A mutation | it was even less active than K347A mutant | ~ 98% |  | 
Nc1nc2c(ncn2[C@@H]2O[C@@H]3COP(=O)(O)O[C@H]4[C@@H](O)[C@H](n5cnc6c(N)ncnc65)O[C@@H]4COP(=O)(O)O[C@H]3[C@H]2O)c(=O)[nH]1 [3′,3′-cGAMP] |  |  |  |  |  |  |  |  |  | ~ 100 μM | ~ 100 μM
